In assay [1] the test system is blood-flow to the myocardium. The assay is described as follows: Effect on blood-flow to the myocardium, anaesthetized dogs, intravenous. The assay is classed as in vivo, dog. As to conditions: anaesthetized dog. Here is the method:
It was undertaken on anaesthetized dogs which received the substance under study by intravenous route. The intensity of the maximum effect on blood-flow to the myocardium was expressed in percentage of the corresponding value before injection. The time required for the maximum effect to decrease by 50% represented the duration of the effect. This time was measured in minutes.

Assay [2] relates to epinephrine-accelerated heart rate (anti-β effect). The assay is described as follows: Antiadrenergic effect: anti-β effect (reduction of epinephrine-accelerated heart rate). The class given is in vivo. As to conditions: dog. The procedure: (§1) The purpose of this test was to determine the capacity of the compounds under study to reduce epinephrine-increased blood-pressure (anti-α effect) and epinephrine-accelerated heart rate (anti-β effect) in the dog previously anaesthetized with pentobarbital and atropinized.
(§2) For each dog, the dose of epinephrine was first determined which provoked a reproductible increase by about 100 mm. Hg in the arterial pressure (between 5 and 10 μg/kg). After that, the dose of epinephrine so determined was administered followed by a dose by intravenous route of the compound to be studied. The percentage of reduction of the hypertension provoked by the compound under study in comparison with the hypertension previously obtained (about 100 mm. Hg) was then registered.
(§3) The percentage of reduction of the epinephrine-induced acceleration of heart-rate produced by the compound under study in comparison with the tachycardia previously measured (about 70 beats) was then registered. In both cases, the results were expressed as follows: […]
(§4) + for a <50%-reduction of the increase in pressure or cardiac frequency
(§5) ++ for a ≥50%-reduction of the increase in pressure or cardiac frequency
(§6) +++ for a subtotal reduction of the increase in pressure or cardiac frequency

In assay [3] the test system is epinephrine-increased blood-pressure (anti-α effect). The assay is described as follows: Antiadrenergic effect: anti-α effect (reduction of epinephrine-increased blood-pressure). The class given is in vivo. The following applies: dog. Here is the method:
as §1, §2, §3, §4, §5, §6

The mark [4] stands for this setting: Canis lupus familiaris, iv, dose 10 mg/kg i.v., read-out: Max. increase (blood-flow to the myocardium).
Where [5] appears, read: Canis lupus familiaris, iv, dose 10 mg/kg i.v.
Where [6] appears, read: Canis lupus familiaris, iv, dose 5 mg/kg i.v.
Where [7] appears, read: Canis lupus familiaris, iv, dose 7.5 mg/kg i.v.

For the compound `CCCCN(CCCC)CCCOc1ccc(C(=O)c2c(-c3ccc(Br)cc3)cc3ccccn23)cc1Cl` [H/Cl/H/drawing 20/n-C4H9/3], the change in vivo at 10 mg/kg in assay [1] (setting [4]) was found to be 60%. Also, the “Time required to decrease to 50% (duration of effect)” value in assay [1] (dose 10 mg/kg i.v.) turned out to be 25 min.

On to `CCCCN(CCCC)CCCOc1ccc(C(=O)c2c(-c3ccc(Br)cc3)cc3ccccn23)cc1Br` [H/Br/H/drawing 13/n-C4H9/3], for which the change in vivo at 10 mg/kg in assay [1] (setting [4]) was 90%. Further, the “Time required to decrease to 50% (duration of effect)” value in assay [1] (dose 10 mg/kg i.v.) came to 25 min.

For `CCCN(CCC)CCCOc1ccc(C(=O)c2c(-c3ccccc3)c(Br)c3ccccn23)cc1Br` [Br/Br/H/drawing 11/n-C3H7/3, 1-Bromo-2-phenyl-3-[4-(3-di-n-propylaminopropyl)-oxy-3-bromo-benzoyl]-indolizine], the change in vivo at 10 mg/kg in assay [1] (setting [4]) stood at 100%. Also, the “Time required to decrease to 50% (duration of effect)” value in assay [1] (dose 10 mg/kg i.v.) came to 20 min.

As to `CCCCN(CCCC)CCCOc1ccc(C(=O)c2c(-c3cccc(Br)c3)c(Br)c3ccccn23)cc1Br` [Br/Br/H/drawing 12/n-C4H9/3], the change in vivo at 10 mg/kg in assay [1] (setting [4]) amounted to 150%. Also, in assay [1] (dose 10 mg/kg i.v.), the “Time required to decrease to 50% (duration of effect)” value was 100 min.

For the compound `CCCN(CCC)CCCOc1ccc(C(=O)c2c(-c3cccc(Br)c3)c(Cl)c3ccccn23)cc1Cl` [Cl/Cl/H/drawing 21/n-C3H7/3, 1-Chloro-2-(3-bromo-phenyl)-3-[4-(3-di-n-propylaminopropyl)-oxy-3-chloro-benzoyl]-indolizine], the change in vivo at 8 mg/kg in assay [1] (Canis lupus familiaris, iv, dose 8 mg/kg i.v., read-out: Max. increase (blood-flow to the myocardium)) was 70%. Besides, the “Time required to decrease to 50% (duration of effect)” value in assay [1] (dose 8 mg/kg i.v.) came to 90 min.

A word on the inhibition in vivo: it is the change of the read-out against control, counted positive when it falls. The low end stands for a response near the control, the high end for a response far below the control. With `CCCN(CCC)CCCOc1c(Cl)cc(C(=O)c2c(-c3ccccc3)c(Br)c3ccccn23)cc1Cl` [Br/Cl/Cl/drawing 39/n-C3H7/3, 1-Bromo-2-phenyl-3-[4-(3-di-n-propylaminopropyl)-oxy-3,5-dichloro-benzoyl]-indolizine], the inhibition in vivo at 10 mg/kg in assay [2] (setting [5]) and in assay [3] (setting [5]) was more than 50% in each case.

Take `CCCCN(CCCC)CCCOc1ccc(C(=O)c2c(CC)cc3ccccn23)cc1C` [H/CH3/H/C2H5/n-C4H9/3, 2-Ethyl-3-[4-(3-di-n-butylaminopropyl)-oxy-3-methyl-benzoyl]-indolizine]: the Anti-β effect result in assay [2] (dose 10 mg/kg i.v.) is “+++”. Besides, the Anti-α effect entry in assay [3] (dose 10 mg/kg i.v.) is reported as “+++”.

Turning to `CCCCN(CCCC)CCCOc1ccc(C(=O)c2c(CC)c(Cl)c3ccccn23)cc1Br` [Cl/Br/H/C2H5/n-C4H9/3, 1-Chloro-2-ethyl-3-[4-(3-di-n-butylaminopropyl)-oxy-3-bromo-benzoyl]-indolizine], the Anti-β effect result in assay [2] (dose 10 mg/kg i.v.) is “+++”. The Anti-α effect result in assay [3] (dose 10 mg/kg i.v.) is on record as “+++”.

On to `CCCCN(CCCC)CCCOc1ccc(C(=O)c2c(CC)c(Br)c3ccccn23)cc1` [Br/H/H/C2H5/n-C4H9/3, 1-Bromo-2-ethyl-3-[4-(3-di-n-butylaminopropyl)-oxy-benzoyl]-indolizine], for which the Anti-β effect result in assay [2] (dose 6 mg/kg i.v.) is reported as “+++”. Besides, in assay [3] (dose 6 mg/kg i.v.), the Anti-α effect result is “+++”.

In the case of `CCCCN(CCCC)CCCOc1c(Br)cc(C(=O)c2c(-c3ccccc3)cc3ccccn23)cc1Br` [H/Br/Br/drawing 42/n-C4H9/3], the inhibition in vivo at 10 mg/kg in assay [2] (setting [5]) and in assay [3] (setting [5]) was more than 50% in each case.

In the case of `CCCN(CCC)CCCOc1ccc(C(=O)c2c(CC)cc3ccccn23)cc1Cl` [H/Cl/H/C2H5/n-C3H7/3, 2-Ethyl-3-[4-(3-di-n-propylaminopropyl)-oxy-3-chloro-benzoyl]-indolizine], the inhibition in vivo at 10 mg/kg in assay [2] (setting [5]) and in assay [3] (setting [5]) was more than 50% in each case.

As for `CCCCN(CCCC)CCCOc1c(Cl)cc(C(=O)c2c(-c3ccccc3)c(Cl)c3ccccn23)cc1Cl` [Cl/Cl/Cl/drawing 37/n-C4H9/3, 1-Chloro-2-phenyl-3-[4-(3-di-n-butylaminopropyl)-oxy-3,5-dichloro-benzoyl]-indolizine], in assay [2] (setting [5]), the inhibition in vivo at 10 mg/kg was more than 50%. In assay [3] (dose 10 mg/kg i.v.), the Anti-α effect result is “+++”.

As for `CCCCN(CCCC)CCCOc1ccc(C(=O)c2c(-c3ccccc3)c(C)c3ccccn23)cc1` [CH3/H/H/drawing 47/n-C4H9/3, 1-Methyl-2-phenyl-3-[4-(3-di-n-butylaminopropyl)-oxy-benzoyl]-indolizine], the Anti-β effect entry in assay [2] (dose 6.3 mg/kg i.v.) is listed as “+++”. Moreover, the Anti-α effect result in assay [3] (dose 6.3 mg/kg i.v.) was “+++”.

Turning to `CCCCN(CCCC)CCCOc1ccc(C(=O)c2c(-c3ccccc3)cc3ccccn23)cc1Br` [H/Br/H/drawing 24/n-C4H9/3], in assay [2] (setting [5]), the inhibition in vivo at 10 mg/kg was more than 50%. Moreover, the Anti-α effect result in assay [3] (dose 10 mg/kg i.v.) is listed as “+++”.

As for `CCCCN(CCCC)CCCOc1ccc(C(=O)c2c(-c3cccc(Br)c3)cc3ccccn23)cc1Cl` [H/Cl/H/drawing 25/n-C4H9/3], the inhibition in vivo at 10 mg/kg in assay [2] (setting [5]) and in assay [3] (setting [5]) was more than 50% each time.

Take `CCCN(CCC)CCCOc1ccc(C(=O)c2c(-c3ccc(Br)cc3)c(Br)c3ccccn23)cc1Cl` [Br/Cl/H/drawing 27/n-C3H7/3]: the inhibition in vivo at 10 mg/kg in assay [2] (setting [5]) and in assay [3] (setting [5]) was more than 50% each time.

`CCCCN(CCCC)CCCOc1ccc(C(=O)c2c(CC)c(Br)c3ccccn23)cc1Cl` [Br/Cl/H/C2H5/n-C4H9/3, 1-Bromo-2-ethyl-3-[4-(3-di-n-butylaminopropyl)-oxy-3-chloro-benzoyl]-indolizine]: in assay [2] (dose 10 mg/kg i.v.), the Anti-β effect entry is on record as “+++”. In addition, the Anti-α effect result in assay [3] (dose 10 mg/kg i.v.) is on record as “+++”.

Consider `CCCCN(CCCC)CCCOc1c(Cl)cc(C(=O)c2c(-c3ccccc3)c(Br)c3ccccn23)cc1Cl` [Br/Cl/Cl/drawing 40/n-C4H9/3, 1-Bromo-2-phenyl-3-[4-(3-di-n-butylaminopropyl)-oxy-3,5-dichloro-benzoyl]-indolizine], for which the inhibition in vivo at 10 mg/kg in assay [2] (setting [5]) and in assay [3] (setting [5]) was more than 50% throughout.

The compound `CCCN(CCC)CCCOc1ccc(C(=O)c2c(-c3ccc(Cl)cc3)c(Br)c3ccccn23)cc1Cl` [Br/Cl/H/drawing 30/n-C3H7/3] returned an inhibition in vivo at 10 mg/kg in assay [2] (setting [5]) of more than 50%. For the same compound, in assay [3] (dose 10 mg/kg i.v.), the Anti-α effect result was “+++”.

With `CCCN(CCC)CCCOc1ccc(C(=O)c2c(-c3cccc(Br)c3)c(Br)c3ccccn23)cc1Cl` [Br/Cl/H/drawing 32/n-C3H7/3], the Anti-β effect result in assay [2] (dose 10 mg/kg i.v.) was “+++”. Further, the Anti-α effect entry in assay [3] (dose 10 mg/kg i.v.) is listed as “+++”.

In the case of `CCCN(CCC)CCCOc1ccc(C(=O)c2c(-c3ccccc3)c(C)c3ccccn23)cc1Br` [CH3/Br/H/drawing 46/n-C3H7/3, 1-Methyl-2-phenyl-3-[4-(3-di-n-propylaminopropyl)-oxy-3-bromo-benzoyl]-indolizine], the inhibition in vivo at 5 mg/kg in assay [2] (setting [6]) and in assay [3] (setting [6]) was more than 50% each time.

With `CCCN(CCC)CCCOc1ccc(C(=O)c2c(C)c(Br)c3ccccn23)cc1OC` [Br/OCH3/H/CH3/n-C3H7/3, 1-Bromo-2-methyl-3-[4-(3-di-n-propylaminopropyl)-oxy-3-methoxy-benzoyl]-indolizine], the inhibition in vivo at 7.5 mg/kg in assay [2] (setting [7]) and in assay [3] (setting [7]) was more than 50% throughout.

In assay [2] (Canis lupus familiaris, iv, dose 6.2 mg/kg i.v.), `CCCCN(CCCC)CCCOc1ccc(C(=O)c2c(-c3ccccc3)c(C)c3ccccn23)cc1Br` [CH3/Br/H/drawing 45/n-C4H9/3, 1-Methyl-2-phenyl-3-[4-(3-di-n-butylaminopropyl)-oxy-3-bromo-benzoyl]-indolizine] returned an inhibition in vivo at 6.2 mg/kg of more than 50%. For the same compound, the Anti-α effect result in assay [3] (dose 6.2 mg/kg i.v.) is given as “+++”.

Turning to `CCCCN(CCCC)CCCOc1ccc(C(=O)c2c(C)c(C)c3ccccn23)cc1Br` [CH3/Br/H/CH3/n-C4H9/3, 1,2-Dimethyl-3-[4-(3-di-n-butylaminopropyl)-oxy-3-bromo-benzoyl]-indolizine], the inhibition in vivo at 10 mg/kg in assay [2] (setting [5]) and in assay [3] (setting [5]) was more than 50% in each case.
